Some results are limits rather than exact numbers.

Here are results for 46 molecules from patent publication US10124004B2, “Pyrido[3,4-d]pyrimidine derivative and pharmaceutically acceptable salt thereof” (Teijin Pharma Limited, priority 2015, dated 2018).

One assay addresses T1, CDK4/cyclin D3 (Homo sapiens, UniProt P11802).
T1 construct: purchased Carna Biosciences, Inc. QS S Assist CDK4/Cyclin D3_FP Kit
Nature of the assay: Human CDK4/cyclin D3 inhibitory activity (QS S Assist CDK4/Cyclin D3_FP Kit, IMAP fluorescence polarization). The assay is classed as biochemical. Conditions: Human CDK4/cyclin D3 inhibitory activity; read-out: CDK4 Activity symbol. The gist of the method:
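IMAP fluorescence polarization kit: CDK4/cyclin D3 at 12.5-25 ng/well with kit ATP/substrate/metal mix in 20 mM HEPES pH 7.4, 0.01% Tween20, 2 mM DTT, 45 min at room temperature. FP read at 485/535 nm after 30 min binding; IC50 from dose-response fit of percent inhibition versus enzyme and no-enzyme controls.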

The next assay has as its target T2, CDK2/cyclin A2 (Homo sapiens, UniProt P24941).
T2 construct: purchased Carna Biosciences, Inc. QS S Assist CDK2/Cyclin A2_FP Kit
Nature of the assay: Human CDK2/cyclin A2 inhibitory activity (QS S Assist CDK2/Cyclin A2_FP Kit, IMAP fluorescence polarization). Format: biochemical. Conditions: Human CDK2/cyclin A2 inhibitory activity; read-out: CDK2 Activity symbol. As to the method:
Human CDK2/Cyclin A^2 Inhibitory Activity
Each compound was analyzed for CDK2/cyclin A2 inhibitory activity with an assay kit (QS S Assist CDK2/Cyclin A2_FP Kit, available from Carna Biosciences, Inc.). This assay kit determines kinase activity on the basis of the IMAP technology by Molecular Devices. Specifically, the kinase activity is determined through quantification of a variation in fluorescent polarization caused by binding of a kinase-phosphorylated fluorescent substance to an IMAP-binding reagent.
An assay buffer was prepared by 10-fold dilution of the 10× assay buffer attached to the kit with distilled water, and each solution was prepared with the assay buffer. The assay buffer contained 20 mM HEPES (pH 7.4), 0.01% Tween 20, and 2 mM dithiothreitol. A test compound solution was prepared by dilution of the test compound with dimethyl sulfoxide (DMSO) to a concentration 100 times higher than the final concentration and then 25-fold dilution with the assay buffer to a concentration four times higher than the final concentration. An ATP/substrate/Metal solution was prepared by five-fold dilution of the 5×ATP/substrate/Metal solution attached to the kit with the assay buffer. An enzyme solution was prepared by dilution of the CDK2/cyclin A2 attached to the kit with the assay buffer to a concentration twice higher than the final concentration (final concentration of CDK2/cyclin A2: 2.5 ng/well). A detection reagent was prepared by five-fold dilution of 5×IMAP-binding buffer A with distilled water and 400-fold dilution of the IMAP-binding reagent with the diluted buffer.
The test compound solution (5 μL/well) and the ATP/substrate/Metal solution (5 μL/well) were added to a 384-well plate, and the enzyme solution or the assay buffer (10 μL/well) was added to the plate (total amount of the reaction mixture: 20 μL/well) for initiation of enzymatic reaction. […] The reaction was performed at room temperature for 60 minutes, and the detection reagent (60 μL/well) was then added to the plate, followed by further reaction for 30 minutes at room temperature under light shielding conditions. Subsequently, fluorescent polarization was determined with a microplate reader at an excitation wavelength of 485 nm and an emission wavelength of 535 nm.
The percent inhibition of enzyme activity was calculated for each test compound (note: enzyme activity=100% in the case of addition of the enzyme solution and addition of DMSO instead of the test compound solution, whereas enzyme activity=0% in the case of addition of the assay buffer instead of the enzyme solution and addition of DMSO instead of the test compound solution). The percent inhibition of enzyme activity was fitted to a dose-response curve, to determine a 50% inhibitory concentration against CDK2/cyclin A2.
In each table, “+++” corresponds to IC50<10 nM, “++” 10 nM≤IC50<100 nM, and “+” 100 nM≤IC50.

T1 sequence (P11802 whole entry): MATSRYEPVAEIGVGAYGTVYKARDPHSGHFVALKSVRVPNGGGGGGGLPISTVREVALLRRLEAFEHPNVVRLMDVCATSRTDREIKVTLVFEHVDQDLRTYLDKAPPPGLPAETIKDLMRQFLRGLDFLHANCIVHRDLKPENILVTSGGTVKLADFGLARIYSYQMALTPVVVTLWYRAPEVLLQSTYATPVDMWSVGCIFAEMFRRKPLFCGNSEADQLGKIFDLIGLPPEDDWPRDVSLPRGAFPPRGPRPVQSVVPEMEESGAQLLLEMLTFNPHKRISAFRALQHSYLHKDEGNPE
T1 sequence (P30281 whole entry partner): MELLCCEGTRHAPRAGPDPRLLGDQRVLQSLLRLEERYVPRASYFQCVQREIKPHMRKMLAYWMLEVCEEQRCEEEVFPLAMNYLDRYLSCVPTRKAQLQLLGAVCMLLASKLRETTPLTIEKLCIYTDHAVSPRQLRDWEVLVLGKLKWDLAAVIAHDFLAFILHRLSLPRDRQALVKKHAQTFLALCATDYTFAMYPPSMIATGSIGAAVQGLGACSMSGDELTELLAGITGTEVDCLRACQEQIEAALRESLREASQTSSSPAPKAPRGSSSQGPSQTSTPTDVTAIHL

For `CO[C@H](C)c1cc2cnc(Nc3ccc(N4CCNCC4)cn3)nc2c(NC(C)C)n1` [Compound 39], the IC50 on CDK4/cyclin D3 was under 10 nM; on CDK2/cyclin A2, at least 100 nM.
The corresponding values for `CC(O)c1cc2cnc(Nc3ccc(N4CCNCC4)cn3)nc2c(NCC(F)(F)F)n1` (centres unmarked) [Compound 40] are under 10 nM and at least 100 nM.
`CC(CO)Nc1nc(C(C)O)cc2cnc(Nc3ccc(N4CCNCC4)cn3)nc12` (centres unmarked) [Compound 41]: the values for the IC50 on CDK4/cyclin D3 and at CDK2/cyclin A2 were under 10 nM and at least 100 nM, respectively.
Turning to `CC(C)Nc1nc(C(F)F)cc2cnc(Nc3ccc(N4CCN(C)CC4)cn3)nc12` [Compound 42], the values for the IC50 on CDK4/cyclin D3 and at CDK2/cyclin A2 were under 10 nM and 10 to 100 nM, respectively.
On the same counts, the results for `CC(C)Nc1nc(C(F)F)cc2cnc(Nc3ccc(N4CCOCC4)cn3)nc12` [Compound 43] are under 10 nM and 10 to 100 nM.
As to `COCc1cc2cnc(Nc3ccc(N4CCNCC4)cn3)nc2c(NC(C)C)n1` [Compound 44], the IC50 at CDK4/cyclin D3 was under 10 nM; at CDK2/cyclin A2, at least 100 nM.
The corresponding values for `CC(O)c1cc2cnc(Nc3ccc(N4CCNCC4)cn3)nc2c(NC(C)(C)CO)n1` (centres unmarked) [Compound 45] are under 10 nM and at least 100 nM.
On the same counts, the results for `CC(C)Nc1nc(C(F)F)cc2cnc(Nc3ccc(N4CCNCC4)cn3)nc12` [Compound 46] are under 10 nM and 10 to 100 nM.
The corresponding values for `CC(C)Nc1nc(C(F)F)cc2cnc(Nc3ccc(CN4CCNCC4)cn3)nc12` [Compound 47] are under 10 nM and 10 to 100 nM.
Take `CC(O)c1cc2cnc(Nc3ccc(N4CCNCC4)cn3)nc2c(NC2CCC2)n1` (centres unmarked) [Compound 48]: the IC50 on CDK4/cyclin D3 was under 10 nM; on CDK2/cyclin A2, at least 100 nM.
Consider `CC(C)Nc1nc(C(F)F)cc2cnc(Nc3ccc(N4CCN(CCO)CC4)cn3)nc12` [Compound 49], for which the IC50 is under 10 nM on CDK4/cyclin D3 and 10 to 100 nM at CDK2/cyclin A2.
On the same counts, the results for `CC(C)Nc1nc(C(F)F)cc2cnc(Nc3ccc(N4CCC(O)CC4)cn3)nc12` [Compound 50] are under 10 nM and 10 to 100 nM.
The corresponding values for `CC(C)Nc1nc(C(F)F)cc2cnc(Nc3ccc(N4CCC(CCCO)CC4)cn3)nc12` [Compound 51] are 10 to 100 nM and at least 100 nM.
The corresponding values for `CC(C)Nc1nc(C(F)F)cc2cnc(Nc3ccc(N4CCC(N)C4)cn3)nc12` (centres unmarked) [Compound 52] are under 10 nM and 10 to 100 nM.
Take `CC(C)Nc1nc(C(F)F)cc2cnc(Nc3ccc(N4CCC(O)C4)cn3)nc12` (centres unmarked) [Compound 53]: the IC50 at CDK4/cyclin D3 is under 10 nM; at CDK2/cyclin A2, 10 to 100 nM.
On the same counts, the results for `CC(O)c1cc2cnc(Nc3ccc(N4CCNCC4)cn3)nc2c(NC(C)C(F)(F)F)n1` (centres unmarked) [Compound 54] are under 10 nM and at least 100 nM.
Take `CC(C)Nc1nc(C(F)F)c(F)c2cnc(Nc3ccc(N4CCNCC4)cn3)nc12` [Compound 55]: the IC50 at CDK4/cyclin D3 is under 10 nM; at CDK2/cyclin A2, 10 to 100 nM.
Consider `CC(=O)c1cc2cnc(Nc3ccc(N4CCNCC4)cn3)nc2c(NC2CCOCC2)n1` [Compound 56], for which the IC50 at CDK4/cyclin D3 was under 10 nM; at CDK2/cyclin A2, at least 100 nM.
On the same counts, the results for `CC(=O)c1cc2cnc(Nc3ccc(N4CCNCC4)cn3)nc2c(NC2CCCC2)n1` [Compound 57] are under 10 nM and at least 100 nM.
On the same counts, the results for `CCNc1nc(C(C)=O)cc2cnc(Nc3ccc(N4CCNCC4)cn3)nc12` [Compound 58] are 10 to 100 nM and at least 100 nM.
The corresponding values for `CC(=O)c1cc2cnc(Nc3ccc(N4CCNCC4)cn3)nc2c(NC(C)(C)C)n1` [Compound 59] are under 10 nM and at least 100 nM.
For `Cc1c(C(F)F)nc(NC(C)C)c2nc(Nc3ccc(N4CCNCC4)cn3)ncc12` [Compound 60], the IC50 on CDK4/cyclin D3 is under 10 nM; at CDK2/cyclin A2, at least 100 nM.
For `CC(C)Nc1nc(C(C)O)cc2cnc(Nc3ccc(N4CCC(O)CC4)cn3)nc12` (centres unmarked) [Compound 61], the IC50 at CDK4/cyclin D3 was under 10 nM; on CDK2/cyclin A2, at least 100 nM.
`Cc1c(CO)nc(NC(C)C)c2nc(Nc3ccc(N4CCNCC4)cn3)ncc12` [Compound 62]: the IC50 is under 10 nM on CDK4/cyclin D3 and at least 100 nM at CDK2/cyclin A2.
On the same counts, the results for `CC(C)Nc1nc([C@H](C)O)c(F)c2cnc(Nc3ccc(N4CCNCC4)cn3)nc12` [Compound 63] are under 10 nM and at least 100 nM.
On the same counts, the results for `CC(C)Nc1nc([C@@H](C)O)c(F)c2cnc(Nc3ccc(N4CCNCC4)cn3)nc12` [Compound 64] are under 10 nM and at least 100 nM.
The corresponding values for `Cc1c([C@H](C)O)nc(NC(C)C)c2nc(Nc3ccc(N4CCNCC4)cn3)ncc12` [Compound 65] are 10 to 100 nM and at least 100 nM.
For `Cc1c([C@@H](C)O)nc(NC(C)C)c2nc(Nc3ccc(N4CCNCC4)cn3)ncc12` [Compound 66], the IC50 at CDK4/cyclin D3 is under 10 nM; on CDK2/cyclin A2, at least 100 nM.
For the molecule `CC(C)Nc1nc(C(F)F)cc2cnc(Nc3ccc(N4CCNCC4)c(F)n3)nc12` [Compound 67], the IC50 was under 10 nM on CDK4/cyclin D3 and 10 to 100 nM at CDK2/cyclin A2.
On the same counts, the results for `CC(=O)c1nc(NC(C)C)c2nc(Nc3ccc(N4CCNCC4)cn3)ncc2c1C` [Compound 68] are under 10 nM and at least 100 nM.
In the case of `CC(O)c1cc2cnc(Nc3ccc(N4CCNCC4)cn3)nc2c(NCc2ccccc2)n1` (centres unmarked) [Compound 69], the IC50 on CDK4/cyclin D3 is under 10 nM; on CDK2/cyclin A2, at least 100 nM.
In the case of `CC(O)c1cc2cnc(Nc3ccc(N4CCNCC4)cn3)nc2c(NC(C)c2ccccc2)n1` (centres unmarked) [Compound 70], the IC50 is under 10 nM at CDK4/cyclin D3 and at least 100 nM at CDK2/cyclin A2.
On the same counts, the results for `CC(C)Nc1nc(C(C)O)cc2cnc(Nc3ccc(N4CCN(C)CC4)cn3)nc12` (centres unmarked) [Compound 71] are under 10 nM and at least 100 nM.
On the same counts, the results for `CC(C)Nc1nc(C(C)O)cc2cnc(Nc3ccc(N4CCOCC4)cn3)nc12` (centres unmarked) [Compound 72] are under 10 nM and at least 100 nM.
The corresponding values for `CC(C)Nc1nc(C(F)F)cc2cnc(Nc3ccc(N4CCNCC4)nn3)nc12` [Compound 73] are under 10 nM and 10 to 100 nM.
In the case of `CC(C)Nc1nc(C(C)O)cc2cnc(Nc3ccc(N4CCN(CCO)CC4)cn3)nc12` (centres unmarked) [Compound 74], the IC50 was under 10 nM at CDK4/cyclin D3 and at least 100 nM at CDK2/cyclin A2.
The corresponding values for `CC(C)Nc1nc(C(C)O)cc2cnc(Nc3ccc(N4CCC(CCCO)CC4)cn3)nc12` (centres unmarked) [Compound 75] are under 10 nM and at least 100 nM.
With `CC(C)Nc1nc(C(C)O)cc2cnc(Nc3ccc(N4CCC(N)C4)cn3)nc12` (centres unmarked) [Compound 76], the values for the IC50 at CDK4/cyclin D3 and at CDK2/cyclin A2 were under 10 nM and at least 100 nM, respectively.
As for `CC(C)Nc1nc(C(C)O)cc2cnc(Nc3ccc(N4CCC(O)C4)cn3)nc12` (centres unmarked) [Compound 77], the results for the IC50 at CDK4/cyclin D3 and on CDK2/cyclin A2 were under 10 nM and at least 100 nM, respectively.
The corresponding values for `CC(C)Nc1nc(C(C)O)cc2cnc(Nc3ccc(C4CCNCC4)cn3)nc12` (centres unmarked) [Compound 78] are under 10 nM and at least 100 nM.
The corresponding values for `CC(C)Nc1nc(C(C)O)cc2cnc(Nc3ccc(CN4CCNCC4)cn3)nc12` (centres unmarked) [Compound 79] are under 10 nM and at least 100 nM.
On the same counts, the results for `CC(C)Nc1nc(C(F)F)cc2cnc(Nc3ccc(N4CCN(C)CC4=O)cn3)nc12` [Compound 80] are under 10 nM and 10 to 100 nM.
On to `CC(C)Nc1nc(C(F)F)cc2cnc(Nc3ccc(OCCN(C)C)cn3)nc12` [Compound 81], for which the values for the IC50 on CDK4/cyclin D3 and at CDK2/cyclin A2 were under 10 nM and 10 to 100 nM, respectively.
The corresponding values for `CC(C)Nc1nc(C(F)F)cc2cnc(Nc3ccccn3)nc12` [Compound 82] are 10 to 100 nM and at least 100 nM.
Take `CC(C)Nc1nc(C(F)F)cc2cnc(Nc3ccc(N4CCNC(=O)C4)cn3)nc12` [Compound 83]: the IC50 on CDK4/cyclin D3 is under 10 nM; at CDK2/cyclin A2, 10 to 100 nM.
In the case of `CC(C)Nc1nc(C(F)F)cc2cnc(Nc3ccc(N4CCN(C)C(=O)C4)cn3)nc12` [Compound 84], the IC50 is under 10 nM at CDK4/cyclin D3 and 10 to 100 nM at CDK2/cyclin A2.
